Reference: US7365231B2, “Compound with antitumor activity and preparation method therefor” (National Taiwan University of Science & Technology, priority 2005, dated 2008)
pIC50: −log10 of the molar value.

Experiments:
Assay in all cases: NCI panel growth inhibition, sulforhodamine B
MCF-7 = format: cell-based; settings: Homo sapiens, MCF7; MCF-7, Breast cancer; drug for last 48 h of 72 h
Text: (§1) Comparison of anticancer activities of the 1,3-substituted adamantane derivatives, 1,3-bis(4-aminophenyl)adamantane (1,3-DPANH2), 1,3-bis(4-(4-aminophenoxy)phenyl)adamantane (1,3-DPAONH2), 1,3-bis(4-(4-amino-3-hydroxy)phenyl)adamantane (1,3-DPA/OH/NH2) and 1,3-bis(4-(4-amino-2-trifluoromethylphenoxy)phenyl)adamantane (1,3-DPA/CF3/NH2) as shown in FIG. 1 were synthesized in the present invention. Those compounds were submitted to the National Cancer Institute for anticancer assay in culture against a standard panel of cell lines. […] To further confirm that the different substituents (CF3 and OH) on the phenyl ring of 1,3-DPAONH2 affect the growth inhibition of cancer cells. […] The transformations of 1,3-DPAONH2 to 1,3-DPA/OH/NH2 led to a remarked enhancement of anticancer activity toward all the tested cancer lines. The role of the OH group at the ortho position of the NH2 on growth inhibition is remarkable. In addition, one compound (1,3-DPA/OH/NH2) was confirmed to have an IC50 of <1 μM against one of the cells (BT-549 breast carcinoma). Comparison of anticancer activities of 1,3-substituted diaminophenyladamantane derivatives, the following order of potency against the tested cancer lines was observed: 1,3-DPA/OH/NH2>1,3-DPAONH2>1,3-DPANH2>1,3-DPA/CF3/NH2.

UACC-62 = format: cell-based; settings: Homo sapiens; UACC-62, Melanoma; drug for last 48 h of 72 h
Text: as §1

EKVX = format: cell-based; settings: Homo sapiens, NSCLC, drug for last 48 h of 72 h
Text: as §1

COLO 205 = format: cell-based; settings: Homo sapiens; COLO 205, Colon cancer; drug for last 48 h of 72 h
Text: as §1

SK-MEL-28 = format: cell-based; settings: Homo sapiens; SK-MEL-28, Melanoma; drug for last 48 h of 72 h
Text: as §1

786-0 = format: cell-based; settings: Homo sapiens; 786-0, Renal cancer; drug for last 48 h of 72 h
Text: as §1

HCT-116 = format: cell-based; settings: Homo sapiens; HCT-116, Colon cancer; drug for last 48 h of 72 h
Text: as §1

A498 = format: cell-based; settings: Homo sapiens; A498, Renal cancer; drug for last 48 h of 72 h
Text: as §1

SF-268 = format: cell-based; settings: Homo sapiens; SF-268, CNS cancer; drug for last 48 h of 72 h
Text: as §1

M14 = format: cell-based; settings: Homo sapiens; M14, Melanoma; drug for last 48 h of 72 h
Text: as §1

OVCAR-3 = format: cell-based; settings: Homo sapiens; OVCAR-3, Ovarian cancer; drug for last 48 h of 72 h
Text: as §1

ACHN = format: cell-based; settings: Homo sapiens, Renal cancer, drug for last 48 h of 72 h
Text: as §1

SW-620 = format: cell-based; settings: Homo sapiens; SW-620, Colon cancer; drug for last 48 h of 72 h
Text: as §1

A549/ATCC = format: cell-based; settings: Homo sapiens, NSCLC, drug for last 48 h of 72 h
Text: as §1

DU-145 = format: cell-based; settings: Homo sapiens; DU-145, Prostate cancer; drug for last 48 h of 72 h
Text: as §1

MDA-MB-231 = format: cell-based; settings: Homo sapiens; MDA-MB-231, Breast cancer; drug for last 48 h of 72 h
Text: as §1

K-562 = format: cell-based; settings: Homo sapiens, K562; K-562, Leukemia; drug for last 48 h of 72 h
Text: as §1

U251 = format: cell-based; settings: Homo sapiens, U-251; U251, CNS cancer; drug for last 48 h of 72 h
Text: as §1

OVCAR-4 = format: cell-based; settings: Homo sapiens; OVCAR-4, Ovarian cancer; drug for last 48 h of 72 h
Text: as §1

HOP-62 = format: cell-based; settings: Homo sapiens; HOP-62, NSCLC; drug for last 48 h of 72 h
Text: as §1

CCRF-CEM = format: cell-based; settings: Homo sapiens, Leukemia, drug for last 48 h of 72 h
Text: as §1

MOLT-4 = format: cell-based; settings: Homo sapiens; MOLT-4, Leukemia; drug for last 48 h of 72 h
Text: as §1

OVCAR-5 = format: cell-based; settings: Homo sapiens; OVCAR-5, Ovarian cancer; drug for last 48 h of 72 h
Text: as §1

HL-60(TB) = format: cell-based; settings: Homo sapiens, Leukemia, drug for last 48 h of 72 h
Text: as §1

LOX IMVI = format: cell-based; settings: Homo sapiens, Melanoma, drug for last 48 h of 72 h
Text: as §1

CAKI-1 = format: cell-based; settings: Homo sapiens; CAKI-1, Renal cancer; drug for last 48 h of 72 h
Text: as §1

NCI/ADR-RES = format: cell-based, human; settings: Breast cancer, drug for last 48 h of 72 h
Text: as §1

SF-295 = format: cell-based, human; settings: drug for last 48 h of 72 h
Text: as §1

BT-549 = format: cell-based, human; settings: drug for last 48 h of 72 h
Text: as §1

MDA-MB-435 = format: cell-based; settings: Homo sapiens; MDA-MB-435, Breast cancer; drug for last 48 h of 72 h
Text: as §1

[1] = Homo sapiens, SF-295, SF-295, CNS cancer
[2] = Homo sapiens, BT-549, BT-549, Breast cancer

Structure (SMILES) | pIC50 (MCF-7) | pIC50 (UACC-62) | pIC50 (EKVX) | pIC50 (SK-MEL-28) | pIC50 (HCT-116) | pIC50 (A498) | pIC50 (SF-268) | pIC50 (M14) | pIC50 (OVCAR-3) | pIC50 (ACHN) | pIC50 (SW-620) | pIC50 (MDA-MB-231) | pIC50 (K-562) | pIC50 (U251) | pIC50 (OVCAR-4) | pIC50 (HOP-62) | pIC50 (MOLT-4) | pIC50 (HL-60(TB)) | pIC50 (LOX IMVI) | pIC50 (CAKI-1) | further results
Nc1ccc(C23CC4CC(C2)CC(c2ccc(N)cc2)(C4)C3)cc1 [1,3-DPANH2, 1,3-bis(4-aminophenyl)adamantane] | 4.50 | 4.54 | 4.44 | 4.82 | 4.35 | 4.80 | 4.34 | 4.43 | 4.31 | 4.39 | 5.50 | 4.71 | 4.84 | 4.84 | 4.99 | 4.22 | 4.95 | 4.51 | < 4.00 | < 4.00 | pIC50 (COLO 205): 5.64; pIC50 (786-0): 4.41; pIC50 (A549/ATCC): < 4.00; pIC50 (DU-145): 4.29; pIC50 (CCRF-CEM): 4.80; pIC50 (OVCAR-5): 4.56; pIC50 (NCI/ADR-RES; Homo sapiens): 4.25; pIC50 (SF-295; [1]): 4.79; pIC50 (BT-549; [2]): 4.37
Nc1ccc(Oc2ccc(C34CC5CC(C3)CC(c3ccc(Oc6ccc(N)cc6C(F)(F)F)cc3)(C5)C4)cc2)c(C(F)(F)F)c1 [1,3-DPA/CF3/NH2, 1,3-bis-(4-(4-amino-2-trifluoromethylphenoxy)phenyl)adamantane] | 4.87 | 4.66 | 4.81 | 4.36 | 4.60 | 4.74 | 4.76 | 4.77 | 4.75 | 4.48 | 4.44 | 4.82 | 4.36 | 4.84 | 4.44 | 4.74 | 4.45 | 4.62 | 4.75 | 4.55 | pIC50 (COLO 205): 4.72; pIC50 (MDA-MB-435): 4.62; pIC50 (786-0): 4.50; pIC50 (A549/ATCC): 4.72; pIC50 (DU-145): 4.45; pIC50 (CCRF-CEM): 4.44; pIC50 (OVCAR-5): 4.57; pIC50 (NCI/ADR-RES; Homo sapiens): 4.66; pIC50 (SF-295; [1]): 4.60; pIC50 (BT-549; [2]): 4.66
Nc1ccc(Oc2ccc(C34CC5CC(C3)CC(c3ccc(Oc6ccc(N)c(O)c6)cc3)(C5)C4)cc2)cc1O [1,3-DPA/OH/NH2, 1,3-bis-(4-(4-amino-3-hydroxyphenoxy)phenyl)adamantane] | 5.73 | 5.58 | 5.77 | 5.56 | 5.86 | 5.34 | 5.94 | 5.80 | 5.73 | 5.79 | 5.54 | 5.79 | 5.46 | 5.89 | 5.69 | 5.26 | 5.62 | 5.67 | 5.79 | 5.74 | pIC50 (COLO 205): 5.74; pIC50 (MDA-MB-435): 5.72; pIC50 (786-0): 5.55; pIC50 (A549/ATCC): 5.82; pIC50 (DU-145): 5.76; pIC50 (NCI/ADR-RES; Homo sapiens): 5.63; pIC50 (SF-295; [1]): 5.64; pIC50 (BT-549; BT-549, Breast cancer): 6.25; pIC50 (BT-549; [2]): > 6.00
Nc1ccc(C2(c3ccc(N)cc3)C3CC4CC(C3)CC2C4)cc1 [2,2-DPANH2, 2,2-bis(4-aminophenyl)adamantane] | 4.71 | 4.79 | 4.79 | 4.83 | 4.68 | 4.68 | 5.80 | 4.83 | 4.96 | 4.73 | 4.94 | 4.76 | 4.99 | 4.73 | 4.84 | 4.87 | 5.30 | 4.72 | 4.79 | 4.82 | pIC50 (MDA-MB-435): 4.83; pIC50 (CCRF-CEM): 5.42; pIC50 (OVCAR-5): 4.80; pIC50 (NCI/ADR-RES): 7.10; pIC50 (NCI/ADR-RES; Homo sapiens): > 7.00; pIC50 (SF-295; [1]): > 7.00; pIC50 (SF-295; SF-295, CNS cancer): 7.23; pIC50 (BT-549; [2]): 4.95
